Measurements from US10286038B2, “Lysosome membrane protein 2 (LIMP-2) based peptides and related uses” (Northwestern University, priority 2016, dated 2019).

What was measured:
[1] = target: T1, recombinant α-mannosidase (LAMAN) (Homo sapiens, UniProt O00754); experiment: peptide pulldown of recombinant LAMAN; assay type: binding; settings: neutral pH
T1 construct: purchased Zymenex, Hillerod, DK
T1 sequence (O00754 50-1011): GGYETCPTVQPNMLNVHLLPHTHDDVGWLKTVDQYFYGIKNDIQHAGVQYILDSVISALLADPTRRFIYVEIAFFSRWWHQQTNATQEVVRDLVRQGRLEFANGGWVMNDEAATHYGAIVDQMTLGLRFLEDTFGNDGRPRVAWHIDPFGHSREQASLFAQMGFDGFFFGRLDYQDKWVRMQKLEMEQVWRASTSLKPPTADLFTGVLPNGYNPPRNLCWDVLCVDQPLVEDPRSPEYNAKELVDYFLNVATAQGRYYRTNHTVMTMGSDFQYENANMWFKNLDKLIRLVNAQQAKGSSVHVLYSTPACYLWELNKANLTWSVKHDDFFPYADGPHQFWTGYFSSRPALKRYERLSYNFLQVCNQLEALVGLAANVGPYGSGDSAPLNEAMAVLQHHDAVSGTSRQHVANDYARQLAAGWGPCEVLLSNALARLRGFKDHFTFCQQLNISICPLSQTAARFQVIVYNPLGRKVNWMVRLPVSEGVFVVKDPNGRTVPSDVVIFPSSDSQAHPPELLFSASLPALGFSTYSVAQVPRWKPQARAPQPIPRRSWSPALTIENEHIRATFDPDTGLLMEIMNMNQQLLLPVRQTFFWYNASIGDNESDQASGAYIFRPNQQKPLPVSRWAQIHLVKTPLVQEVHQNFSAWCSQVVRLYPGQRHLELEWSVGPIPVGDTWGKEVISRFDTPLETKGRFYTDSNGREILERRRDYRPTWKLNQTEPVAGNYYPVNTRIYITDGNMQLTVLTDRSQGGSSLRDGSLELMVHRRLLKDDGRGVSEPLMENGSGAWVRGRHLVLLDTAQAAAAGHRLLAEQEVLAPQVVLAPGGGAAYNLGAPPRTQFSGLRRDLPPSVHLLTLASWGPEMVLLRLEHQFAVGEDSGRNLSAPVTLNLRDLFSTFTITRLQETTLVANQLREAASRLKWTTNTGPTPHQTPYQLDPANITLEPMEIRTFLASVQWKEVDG
Protocol: (§1) FIG. 6: Characterization of a helical LIMP-2-derived peptide. […] B) In vitro peptide pulldown assay: helix 5 peptides were incubated with recombinant LAMAN and bovine serum albumin (BSA). INPUT and BOUND fractions were loaded onto SDS-PAGE and proteins visualized by coomassie staining (CBB). C) Densitometry of LAMAN and BSA protein bound to peptide, normalized to protein fraction bound to beads only (buffer; n=2-3). D) and E) Activity assay of recombinant (D) GC and (E) LAMAN incubated with different excess molarities (1×-10×) of helix 5 peptide (n=β-5) and LIMP-2 ectodomain (n=4). GC activities were normalized and statistical analyses compared to 0 input of BSA/helix 5 peptide. F) Peptide-pulldown of GC constructs overexpressed in N2a cells with subsequent Western blot analysis (α-hGC) utilizing helix 5 and the 3×D control peptide as a negative binding control. G) Densitometry of GC protein bound to peptides; each construct is normalized to buffer only. H) Live-cell lysosomal GC activity of H4 cells after uptake of helix 5 and 3×D TAT peptides. GC activity was measures every 30 minutes up to 3.5 hours. Cells were treated with DMSO or the “lysosomal inhibitor” bafilomycinA1. […] Lysosomal activity is calculated by subtracting the AUC of DMSO with the AUC of bafilomycinA1 treated samples (n=4). […] GC activity was measured from 16-74 hours and is shown in mU/mg (n=3). […]

GC in H4 cells = target: T2, GC in H4 cells (Homo sapiens, UniProt P04062); experiment: whole cell GC activity of H4 cell lysate over the 74 hrs time course; assay type: cell-based; settings: H4 cells incubated with TAT-peptide
T2 construct: Lysosomal GC activity of living H4 cells measured in vivo after incubation with uptake-optimized TAT-peptides; endogenous in cells; host or cells: H4 human neuroglioma cells (for the 74 h course: stably overexpressing α-synuclein)
T2 sequence (P04062 40-536): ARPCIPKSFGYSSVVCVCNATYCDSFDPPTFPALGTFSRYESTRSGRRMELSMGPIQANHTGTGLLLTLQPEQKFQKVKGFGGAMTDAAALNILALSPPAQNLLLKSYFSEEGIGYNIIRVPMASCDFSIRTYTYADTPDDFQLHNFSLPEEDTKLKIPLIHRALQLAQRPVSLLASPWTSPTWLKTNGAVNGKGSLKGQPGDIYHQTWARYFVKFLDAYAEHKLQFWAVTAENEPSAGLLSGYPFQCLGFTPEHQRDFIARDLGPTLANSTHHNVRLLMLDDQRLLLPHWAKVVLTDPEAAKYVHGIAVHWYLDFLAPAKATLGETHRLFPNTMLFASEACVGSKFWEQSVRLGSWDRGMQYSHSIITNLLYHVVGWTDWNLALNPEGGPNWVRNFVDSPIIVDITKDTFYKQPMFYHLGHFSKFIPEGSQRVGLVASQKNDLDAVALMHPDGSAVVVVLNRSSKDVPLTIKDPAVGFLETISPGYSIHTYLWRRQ
Protocol: as §1

Row | Substance | interaction with recombinant α-mannosidase (LAMAN) [1] | enhancement of GC activity over the 74 hrs time course (GC in H4 cells)
1 | Biotin-Ttds-LREIIEAMLKAYQQKLFVTHTVDE [helix 5 peptide] | no interaction | 
2 | Biotin-Ttds-KFERQLREIIEAMLKAYQQKLFVTHTVDEYGRKKRRQRRR [helix 5 TAT-peptide] |  | persists
